For orientation: Papp A→B means how fast a substance crosses the layer from the apical side. As a reminder, the Papp B→A is how fast a substance crosses the layer from the basolateral side. In general, solubility refers to how much of the substance goes into solution per volume. Low readings indicate little dissolved substance, high ones much dissolved substance.

We go through one compound from patent US20100210597A1, “C21-Deoxy Ansamycin Derivatives as Antitumor Agents” (priority 2007, published 2010).

One data set relates to Hsp90. To be noted: shown in WO2007/074347 (there compound 14); cited from earlier work.
A further data set concerns Caco-2 cells. Briefly: In vitro Caco-2 assay for cell permeability. Type of data set: in vitro ADME. To be noted: 10 uM, 2 hour incubation. Here is the method: (§1) Caco-2 cells (ATCC Cat. # HTB-37) were grown on fibrillar collagen-coated, microporous, polycarbonate membranes in 24-well BioCaot™ insert plates. Following 5-day growth in Eagle's minimum essential medium supplemented with 10% FBS, the cells were exposed to BioCoat Enterocyte Differentiation Medium (BD, Cat. # 05496) for 2 days to induce enterocytic differentiation. Prior to dosing, the transepithelial electric resistance (TEER) of the Caco-2 cells in each well was measured to ensure the quality of the monolayers.
(§2) The stock solutions of test compounds were prepared at 3 mM in DMSO. Dosing solutions were prepared in the permeability assay buffer at 10 μm. The permeability assay buffer was Hank's balanced salt solution containing 10 mM HEPES at a pH of 7.4±0.2.
(§3) The Caco-2 cells were dosed with the test compounds on either apical side (for A-to-B permeation) or basolateral side (for B-to-A permeation) and incubated at 37° C. with 5% CO2 and 90% relative humidity. The testing for each compound was performed in duplicate. After 2 hour incubation, a 20-μL sample was taken from each of dosing solutions and both donor and receiver compartments. To ensure the validity of the Caco-2 assay, propranolol and vinblastine were used as a high- and a low- to medium-permeability positive control, respectively. Vinblastine also served as a P-gp substrate, tested in conjunction with a P-gp inhibitor, verapamil.
(§4) To quantify test compounds by LC/MS/MS, a related geldanamycin-like compound, 17-methoxyethylamino geldanamycin (Schnur et al., 1995), was used as the internal standard. The calculation of permeability of each compound involved only the concentration ratio of the same test compound, the concentration ratio was expressed in the peak area ratio of the test compound to the internal standard. The peak area ratio of each compound was derived by LC-MS/MS.
(§5) The apparent permeability coefficient Papp was calculated as below: […]
(§6) dCr: cumulative concentration in the receiver compartment in M. dt: duration of the assay (i.e., 7200 seconds). Vr: volume of the receiver compartment in cm^3. A: area of the cell monolayer (0.31 cm^2 for 24-well BioCoat™ plate). C0: concentration of the dosing solution in M.
(§7) The in vitro permeability of 20 and the parent 17 were assayed using caco-2 cells, as described in the general methods. All compounds were analysed at a concentration of 10 uM.
(In general: Passage across Caco-2 layers is used to estimate intestinal permeability.)

Data set [1] can be described thus: In vitro Caco-2 assay for cell permeability. It counts as in vitro ADME. To be noted: human, Caco-2, pH 7.4, 10 uM, 2 hour incubation. As to the method:
as §1, §2, §3, §4, §5, §6, §7

Data set [2] can be described thus: Water solubility assay, thermodynamic measurement. Type of data set: physicochemical. The settings on record: 5% glucose, 6 hours, room temperature. As to the method: Thermodynamic Measurements: • The appropriate amounts of compound to make solutions of the compounds at 2, 5, 10 and or 20 mM were mixed with the appropriate amounts of 5% glucose and with DMSO in brown glass vials and shaken at room temperature on an IKA® vibrax VXR shaker. After 6 hours the resulting suspensions/solutions were centrifuged for 20 min at 13200 rpm. • Aliquots of the supernatant fluid were then analysed by an Agilent 1100 HPLC coupled to a Bruker Daltonics Esquire3000 electrospray mass spectrometer (for details see specific examples herein). Chromatography was achieved over a Phenomenex Hyperclone column, BDS C18 3u (150×4.6 mm), with a linear gradient of acetonitrile:water (40:60 to 100) over 11 min at 1 mL/min. UV absorbance was monitored at λ=258 and 280 nm. • All analyses were performed in triplicate and the solubilities of individual compounds calculated by comparing their solubility in 5% glucose with an assumed solubility of 100% in DMSO.
Solubility in 2% DMSO in PBS at each time point was determined by comparing total peak areas for each chromatogram with mean total peak area for chromatograms produced from the corresponding 6 hour DMSO solutions. (Mean total peak area in DMSO solutions was assumed to be equivalent to a 0.5 mM solution). The solubility of compound 17 was measured by a thermodynamic assay as described in the general methods.

Data set [3] in a line: In vivo pharmacokinetic assay in mice. To be noted: female CD-1 mice. Also on record: species or system mouse. Here is the method: The test compound was prepared directly in endotoxin free water. A single dose of 10 mg/kg p.o. or 3 mg/kg i.v. was administered to groups of female CD1 mice (3 mice for each compound per time point). Dose volumes were 10 mL/kg for both oral and intravenous administration. At 4 minutes and 0.25, 0.5, 1, 2, 4, 8, 24 hours groups were sacrificed and plasma was collected from each mouse for further analysis. For oral dosing, a single dose of Test Article was administered via oral gavage to the mice. For intravenous dosing, a single dose of Test article was administered intravenously to mice via the tail veins.
The concentration of the relevant compounds in the plasma samples was determined by HPLC with MS detection.
• Mass spectrometer: API 3200 Q Trap triple quadruple mass spectrometer • Liquid chromatography: Agilent 1200/PAL HTC Autosampler • Ionization Mode: Electrospray (may be changed depending on the TA) • Monitoring: Multiple Reaction Monitoring • LC chromatography BetaBastic-8, 50×2.1 mm, 5 μm (may separation: be changed depending on the TA)
Based on the peak area ratios of test article to an internal standard, 17-Methoxyethylamino Geldanamycin (Schnur et al., 1995), concentrations of an unknown sample were obtained by a calibration curve.
Test plasma sample (0.05 ml), analyte free mouse whole serum (0.05 ml), internal standard solution (0.1 ml of 10 mg/mL 17-Methoxyethylamino geldanamycin (Schnur et al., 1995) dissolved in methanol) and acetonitrile (0.5 ml) were pipetted into a 2-mL polypropylene tube and the contents of the tubes were mixed for a minimum of 5 minutes (Vibrax mixer). The tubes were then centrifuged in a microfuge for a minimum of 2 minutes at 12,000 rpm. 0.1 ml of the solvent layer was transferred into a 2-mL polypropylene tube containing 1 mL acid diluent (0.1% formic acid). The tubes were then mixed for a minimum of 5 minutes (Vibrax mixer) and then centrifuged at approximately 3500 rpm for 5 minutes. The extracts were transferred to auto-sampler vials and placed in the auto sampler tray which was set at ambient temperature. The auto-sampler was programmed to inject a 0.005 ml aliquot of each extract onto the analytical column.
In vivo confirmation of the cleavage of 20 to the parent molecule, 17, was carried out as described in the general methods.
Female CD-1 mice were given single doses of 20, either intravenously at 3 mg/kg, or orally at 10 mg/kg. Plasma samples were then collected at 8 time points (0.067, 0.25, 0.5, 1, 2, 4, 8 and 24 h postdose) over a 24-h period. The amounts of 20 and 17 in the samples were then analysed. […] After iv administration, 20 was only detected up to 0.25 hours after dosing, whilst 17 was detected up to 4 hours after dosing.

Values after ≈ are worked out from the molar mass of the structure shown. Like-named read-outs stand apart in the source and are kept apart here.

Consider `CO[C@H]1C[C@H](C)Cc2cc(O)cc(c2)NC(=O)/C(C)=C/CC[C@H](C)[C@@H](OC(N)=O)/C(C)=C/[C@H](C)[C@H]1O` [Compound 17, 4,5-dihydro-11-O-demethyl-15-demethoxy-18,21-didehydro-21-deoxomacbecin], for which, in the data set on Hsp90, the Hsp90 inhibition result is reported as “potent Hsp90 inhibitor”. In addition, the “Efflux Limited” value in the data set with Caco-2 cells is “Yes (Papp (B → A)/Papp (A → B) ≧ 3, and Papp (B → A) ≧ 1.0 × 10^-6 cm/s)”. Also, the efflux ratio at 2 h, 10 uM in data set [1] (read-out: Efflux ratio Papp(B → A)/Papp(A → B)) worked out at 6.8. In addition, the results for the apparent permeability from apical to basolateral (Papp A→B) at 2 h, 10 uM in data set [1] (read-out: Permeability Apical to Basolateral Papp(A → B) Mean), in data set [1] (read-out: Permeability Apical to Basolateral Papp(A → B) Rep. 1) and in data set [1] (read-out: Permeability Apical to Basolateral Papp(A → B) Rep. 2) were 0.44 ×10⁻⁶ cm/s, 0.39 ×10⁻⁶ cm/s and 0.49 ×10⁻⁶ cm/s, respectively. For the same compound, the values for the Papp B→A at 2 h, 10 uM in data set [1] (read-out: Permeability Basolateral to Apical Papp(B → A) Mean), in data set [1] (read-out: Permeability Basolateral to Apical Papp(B → A) Rep. 1) and in data set [1] (read-out: Permeability Basolateral to Apical Papp(B → A) Rep. 2) were 2.95 ×10⁻⁶ cm/s, 1.7 ×10⁻⁶ cm/s and 4.21 ×10⁻⁶ cm/s, respectively. Moreover, in data set [2], the solubility was found to be 716 µM (≈ 360 µg/mL). The “detected in plasma up to (time after dosing)” value in data set [3] (single intravenous dose of 20 at 3 mg/kg) is “up to 4 hours”; in data set [3] (single oral dose of 20 at 10 mg/kg) it was “up to 8 hours”.
